According to ChEMBL document CHEMBL5376011, “Discovery of Anti-Hypercholesterolemia Agents Targeting LXRα from Marine Microorganism-Derived Natural Products” (J Nat Prod, 2024):
Activity calls are given as the source filed them. No cut-off for these calls is given here.

Experiments:
Mus musculus [1] = test: Antihypercholesterolemic activity against high cholesterol diet fed C57BL/6J mouse assessed as reduction in hepatocyte lysis necrosis at 300 microg/kg, ip administered every 2 days for 15 days by Oil red staining based analysis; assay type: functional, organism-based; details: dose 300.0 µg/kg, time 15.0 day
Mus musculus [2] = test: Antihypercholesterolemic activity against high cholesterol diet induced C57BL/6J mouse assessed as reduction in serum aspartate aminotransferase level at 300 microg/kg, ip administered every 2 days for 15 days; assay type: functional, organism-based; details: dose 300.0 µg/kg, time 15.0 day
Mus musculus [3] = test: Antihypercholesterolemic activity against high cholesterol diet fed C57BL/6J mouse assessed as improvement in hepatocyte degeneration at 300 microg/kg, ip administered every 2 days for 15 days by H&E staining based analysis; assay type: functional, organism-based; details: dose 300.0 µg/kg, time 15.0 day
Mus musculus [4] = test: Antihypercholesterolemic activity against high cholesterol diet fed C57BL/6J mouse assessed as reduction of fine vacuoles in the cytoplasm at 300 microg/kg, ip administered every 2 days for 15 days by Oil red staining based analysis; assay type: functional, organism-based; details: dose 300.0 µg/kg, time 15.0 day
Mus musculus [5] = test: Antihypercholesterolemic activity against high cholesterol diet fed LXRalpha knockout C57BL/6J mouse assessed as reduction in serum total cholesterol level at 300 microg/kg, ip administered every 2 days for 15 days; assay type: functional, organism-based; details: dose 300.0 µg/kg, time 15.0 day
Mus musculus [6] = test: Antihypercholesterolemic activity against high cholesterol diet fed LXRalpha knockout C57BL/6J mouse assessed as reduction in serum triglycerides level at 300 microg/kg, ip administered every 2 days for 15 days; assay type: functional, organism-based; details: dose 300.0 µg/kg, time 15.0 day
Mus musculus [7] = test: Antihypercholesterolemic activity against high cholesterol diet fed C57BL/6J mouse assessed as reduction in degree of hepatic steatosis at 300 microg/kg, ip administered every 2 days for 15 days by H&E staining based analysis; assay type: functional, organism-based; details: dose 300.0 µg/kg, time 15.0 day
Mus musculus [8] = test: Antihypercholesterolemic activity against high cholesterol diet fed C57BL/6J mouse assessed as improvement in hepatocyte liposis at 300 microg/kg, ip administered every 2 days for 15 days by Oil red staining based analysis; assay type: functional, organism-based; details: dose 300.0 µg/kg, time 15.0 day
Mus musculus [9] = test: Antihypercholesterolemic activity against high cholesterol diet fed LXRalpha knockout C57BL/6J mouse assessed as improvement in hepatocellular degeneration at 300 microg/kg, ip administered every 2 days for 15 days by Oil red staining based analysis; assay type: functional, organism-based; details: dose 300.0 µg/kg, time 15.0 day
Mus musculus [10] = test: Antihypercholesterolemic activity against high cholesterol diet fed LXRalpha knockout C57BL/6J mouse assessed as reduction in serum aspartate aminotransferase level at 300 microg/kg, ip administered every 2 days for 15 days; assay type: functional, organism-based; details: dose 300.0 µg/kg, time 15.0 day
Mus musculus [11] = test: Antihypercholesterolemic activity against high cholesterol diet fed C57BL/6J mouse assessed as improvement in hepatocyte liposis at 300 microg/kg, ip administered every 2 days for 15 days by H&E staining based analysis; assay type: functional, organism-based; details: dose 300.0 µg/kg, time 15.0 day
Mus musculus [12] = test: Antihypercholesterolemic activity against high cholesterol diet fed C57BL/6J mouse assessed as reduction of fine vacuoles in the cytoplasm at 300 microg/kg, ip administered every 2 days for 15 days by H&E staining based analysis; assay type: functional, organism-based; details: dose 300.0 µg/kg, time 15.0 day
Mus musculus [13] = test: Antihypercholesterolemic activity against high cholesterol diet induced C57BL/6J mouse assessed as reduction in plasma low-density lipoprotein cholesterol level at 300 microg/kg, ip administered every 2 days for 15 days; assay type: functional, organism-based; details: dose 300.0 µg/kg, time 15.0 day
Mus musculus [14] = test: Antihypercholesterolemic activity against high cholesterol diet fed LXRalpha knockout C57BL/6J mouse assessed as improvement in hepatic steatosis at 300 microg/kg, ip administered every 2 days for 15 days by Oil red staining based analysis; assay type: functional, organism-based; details: dose 300.0 µg/kg, time 15.0 day
[15] = molecular target: T1, Oxysterols receptor LXR-alpha (Homo sapiens) (UniProt Q13133); test: Agonist activity at LXRalpha in human HepG2 cells assessed as upregulation of ABCA1 protein expression level at 25 uM incubated for 24 hrs by Western blot analysis; assay type: cell-based; details: filed as agonist
T1 sequence (whole entry): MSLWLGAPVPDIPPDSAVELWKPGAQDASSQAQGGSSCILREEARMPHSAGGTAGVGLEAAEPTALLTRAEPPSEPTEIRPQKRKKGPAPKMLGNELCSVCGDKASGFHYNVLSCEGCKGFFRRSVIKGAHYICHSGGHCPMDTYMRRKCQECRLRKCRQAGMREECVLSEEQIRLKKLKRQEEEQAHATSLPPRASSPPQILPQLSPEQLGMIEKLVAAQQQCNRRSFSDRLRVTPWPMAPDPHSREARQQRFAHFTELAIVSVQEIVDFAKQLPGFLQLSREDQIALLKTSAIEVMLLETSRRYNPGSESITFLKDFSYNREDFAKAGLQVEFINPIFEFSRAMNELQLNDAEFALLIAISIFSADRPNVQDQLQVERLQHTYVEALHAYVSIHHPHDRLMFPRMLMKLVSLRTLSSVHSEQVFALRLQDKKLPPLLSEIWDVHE

HepG2 [16] = test: Improvement of lipid metabolism in palmitic acid and oleic acid induced human HepG2 cell model of hepatic steatosis assessed as reduction in total cellular cholesterol level at 25 uM preincubated with palmitic acid and oleic acid for 48 hrs followed by compound addition and measured after 24 hrs; assay type: functional, cell-based
Mus musculus [17] = test: Antihypercholesterolemic activity against high cholesterol diet fed C57BL/6J mouse assessed as reduction in degree of hepatic steatosis at 300 microg/kg, ip administered every 2 days for 15 days by Oil red staining based analysis; assay type: functional, organism-based; details: dose 300.0 µg/kg, time 15.0 day
Mus musculus [18] = test: Antihypercholesterolemic activity against high cholesterol diet fed LXRalpha knockout C57BL/6J mouse assessed as improvement in liver lipid droplet accumulation at 300 microg/kg, ip administered every 2 days for 15 days by H&E staining based analysis; assay type: functional, organism-based; details: dose 300.0 µg/kg, time 15.0 day
Mus musculus [19] = test: Antihypercholesterolemic activity against high cholesterol diet fed LXRalpha knockout C57BL/6J mouse assessed as upregulation in ABCA1 protein level at 300 microg/kg, ip administered every 2 days for 15 days by Western blot analysis; assay type: functional, organism-based; details: dose 300.0 µg/kg, time 15.0 day
HepG2 [20] = test: Effect on LXRbeta mRNA expression in human HepG2 cells at 25 uM incubated for 24 hrs by RT-qPCR analysis; assay type: functional, cell-based
Mus musculus [21] = test: Antihypercholesterolemic activity against high cholesterol diet fed C57BL/6J mouse assessed as improvement in hepatocyte degeneration at 300 microg/kg, ip administered every 2 days for 15 days by Oil red staining based analysis; assay type: functional, organism-based; details: dose 300.0 µg/kg, time 15.0 day

COc1ccc2c3c([nH]c2c1)[C@H](C=C(C)C)N1C(=O)[C@@H]2CCCN2C(=O)[C@]1(O)[C@H]3O
Activity (Mus musculus [1]): Active
Activity (Mus musculus [2]): Active
Activity (Mus musculus [3]): Active
Activity (Mus musculus [4]): Active
Activity (Mus musculus [5]): inactive
Activity (Mus musculus [6]): inactive
Activity (Mus musculus [7]): Active
Activity (Mus musculus [8]): Active
Activity (Mus musculus [9]): Active
Activity (Mus musculus [10]): inactive
Activity (Mus musculus [11]): Active
Activity (Mus musculus [12]): Active
Activity (Mus musculus [13]): Active
Activity (Mus musculus [14]): Active
Activity [15]: Active
Activity (HepG2 [16]): Active
Activity (Mus musculus [17]): Active
Activity (Mus musculus [18]): Active
Activity (Mus musculus [19]): inactive
Activity (HepG2 [20]): inactive
Activity (Mus musculus [21]): Active
